Our source for the IC50 values is patent US11370763B2, “Compounds and compositions for treating conditions associated with NLRP activity” (Novartis AG, priority 2017, dated 2022).

In general, IC50 refers to the midpoint of a concentration-inhibition curve.

The assay deals with IL-1β production in PMA-differentiated THP-1 cells. Nature of the assay: IL-1β production in PMA-differentiated THP-1 cells stimulated with gramicidin (hTHP-1 assay containing 2% fetal bovine serum; Procedures 1-3). In kind it is cell-based, human. The settings on record: Homo sapiens, THP-1, hTHP-1 assay containing 2% fetal bovine serum; class symbols; read-out: hTHP-1 IC50 (Average IC50 of compounds in hTHP-1 assay). The method in brief: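 THP-1 cells differentiated with PMA (20 ng/ml, 16-18 h), replated in 2% FBS RPMI (50,000 cells/well), preincubated 1 h with compound (top final 100 μM, 3-fold steps, 0.37% DMSO), then stimulated 2 h with gramicidin (5 μM). Supernatant IL-1β measured by HTRF.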

As to `CC(C)c1ccc(F)c(C(C)C)c1CC(=O)N=S(N)(=O)c1nc(C(C)(C)O)cs1` (stereo not drawn) [Example 119, N-(amino(4-(2-hydroxypropan-2-yl)thiazol-2-yl)(oxo)-λ^6-sulfaneylidene)-2-(3-fluoro-2,6-diisopropylphenyl)acetamide], the half-inhibitory concentration (IC50) was 200 to 1000 nM.

Turning to `CC(C)c1ccc(C#N)c(C(C)C)c1CC(=O)N=S(N)(=O)c1nc(C(C)(C)O)cs1` (stereo not drawn) [Example 120, N-(amino(4-(2-hydroxypropan-2-yl)thiazol-2-yl)(oxo)-λ^6-sulfaneylidene)-2-(3-cyano-2,6-diisopropylphenyl)acetamide], the 50% inhibitory concentration (IC50) lay in the range of 200 to 1000 nM.

`Cc1ccc(-c2cc(C(C)C)c(CC(=O)N=S(N)(=O)c3ncc(C(C)(C)O)s3)c(C(C)C)c2)cc1C` (stereo not drawn) [Example 121, N-(amino(5-(2-hydroxypropan-2-yl)thiazol-2-yl)(oxo)-λ^6-sulfaneylidene)-2-(3,5-diisopropyl-3′,4′-dimethyl-[1,1′-biphenyl]-4-yl)acetamide]: the half-inhibitory concentration (IC50) fell in the range of 200 to 1000 nM.

Regarding `CC(C)c1cc(-c2ccc(Cl)c(Cl)c2)cc(C(C)C)c1CC(=O)N=S(N)(=O)c1ncc(C(C)(C)O)s1` (stereo not drawn) [Example 122, N-(amino(5-(2-hydroxypropan-2-yl)thiazol-2-yl)(oxo)-λ^6-sulfaneylidene)-2-(3′,4′-dichloro-3,5-diisopropyl-[1,1′-biphenyl]-4-yl)acetamide], the IC50 was 200 to 1000 nM.

Take `CC(C)c1cc(C#N)c(F)c(C(C)C)c1CC(=O)N=S(N)(=O)c1cnc(C(C)(C)O)s1` (stereo not drawn) [Example 123, N-(amino(2-(2-hydroxypropan-2-yl)thiazol-5-yl)(oxo)-λ^6-sulfaneylidene)-2-(4-cyano-3-fluoro-2,6-diisopropylphenyl)acetamide]: the half-maximal inhibitory concentration (IC50) was in the range of 200 to 1000 nM.

Regarding `CC(C)c1cc(F)c(F)c(C(C)C)c1CC(=O)N=S(N)(=O)c1nc(C(C)(C)O)cs1` (stereo not drawn) [Example 124, N-(amino(4-(2-hydroxypropan-2-yl)thiazol-2-yl)(oxo)-λ^6-sulfaneylidene)-2-(3,4-difluoro-2,6-diisopropylphenyl)acetamide], the 50% inhibitory concentration (IC50) lay in the range of 200 to 1000 nM.

Take `CC(C)c1ccc(F)c(C(C)C)c1CC(=O)N=S(N)(=O)c1ccc(C(C)(C)O)s1` (stereo not drawn) [Example 125, N-(amino(5-(2-hydroxypropan-2-yl)thiophen-2-yl)(oxo)-λ^6-sulfaneylidene)-2-(3-fluoro-2,6-diisopropylphenyl)acetamide]: the IC50 lay within 200 to 1000 nM.

For the compound `COc1ccc2cc(-c3cc(C(C)C)c(CC(=O)N=S(N)(=O)c4ncc(C(C)(C)O)s4)c(C(C)C)c3)ccc2c1` (stereo not drawn) [Example 126, N-(amino(5-(2-hydroxypropan-2-yl)thiazol-2-yl)(oxo)-λ^6-sulfaneylidene)-2-(2,6-diisopropyl-4-(6-methoxynaphthalen-2-yl)phenyl)acetamide], the 50% inhibitory concentration (IC50) fell in the range of 200 to 1000 nM.

In the case of `CC(C)c1cc(F)cc(C(C)C)c1CC(=O)N=S(N)(=O)c1ncc(C(C)(C)C(=O)O)s1` (stereo not drawn) [Example 127, 2-(2-(N′-(2-(4-fluoro-2,6-diisopropylphenyl)acetyl)sulfamidimidoyl)thiazol-5-yl)-2-methylpropanoic acid], the half-inhibitory concentration (IC50) was 5000 to 30000 nM.

For the compound `CC(C)c1c(F)c(C#N)cc(C2CC2)c1CC(=O)N=S(N)(=O)c1ccc(CN(C)C)cc1F` (stereo not drawn) [Example 128, N-(amino(4-((dimethylamino)methyl)-2-fluorophenyl)(oxo)-λ^6-sulfaneylidene)-2-(4-cyano-6-cyclopropyl-3-fluoro-2-isopropylphenyl)acetamide], the IC50 was in the range of 200 to 1000 nM.

For `Cc1sc(S(N)(=O)=NC(=O)Cc2c(C(C)C)ccc(F)c2C(C)C)cc1C(C)(C)O` (stereo not drawn) [Example 129, N-(amino(4-(2-hydroxypropan-2-yl)-5-methylthiophen-2-yl)(oxo)-λ^6-sulfaneylidene)-2-(3-fluoro-2,6-diisopropylphenyl)acetamide], the IC50 lay in the range of 40 to 200 nM.

With `CC(C)c1ccc(F)c(C(C)C)c1CC(=O)N=S(N)(=O)c1ncc(C(C)(C)O)s1` (stereo not drawn) [Example 130, N-(amino(5-(2-hydroxypropan-2-yl)thiazol-2-yl)(oxo)-λ^6-sulfaneylidene)-2-(3-fluoro-2,6-diisopropylphenyl)acetamide], the IC50 lay within 1000 to 5000 nM.

Turning to `CC(C)c1cc2c(c(C(C)C)c1CC(=O)N=S(N)(=O)c1cnc(C(C)(C)O)s1)COC2` (stereo not drawn) [Example 132, N-(amino(2-(2-hydroxypropan-2-yl)thiazol-5-yl)(oxo)-λ^6-sulfaneylidene)-2-(4,6-diisopropyl-1,3-dihydroisobenzofuran-5-yl)acetamide], the IC50 lay in the range of 1000 to 5000 nM.

As for `CC(C)c1cc(C#N)c(F)c(C(C)C)c1CC(=O)N=S(N)(=O)c1nc(C(C)(C)O)cs1` (stereo not drawn) [Example 133, N-(amino(4-(2-hydroxypropan-2-yl)thiazol-2-yl)(oxo)-λ^6-sulfaneylidene)-2-(4-cyano-3-fluoro-2,6-diisopropylphenyl)acetamide], the IC50 was in the range of 200 to 1000 nM.

For the compound `CC(C)c1cc2c(c(C(C)C)c1CC(=O)N=S(N)(=O)c1ccc(CN(C)C)cc1)COC2` (stereo not drawn) [Example 134], the half-maximal inhibitory concentration (IC50) is 1000 to 5000 nM.

With `CC(C)c1ccc2c(c1CC(=O)N=S(N)(=O)c1cnc(C(C)(C)O)s1)CCC2` (stereo not drawn) [Example 135, N-(amino(2-(2-hydroxypropan-2-yl)thiazol-5-yl)(oxo)-λ^6-sulfaneylidene)-2-(5-isopropyl-2,3-dihydro-1H-inden-4-yl)acetamide], the IC50 was in the range of 1000 to 5000 nM.

As for `CC(C)c1cc(-c2ccc3ccccc3c2)cc(C(C)C)c1CC(=O)N=S(N)(=O)c1ccc(CN(C)C)cc1` (stereo not drawn) [Example 136, N-(amino(4-((dimethylamino)methyl)phenyl)(oxo)-λ^6-sulfaneylidene)-2-(2,6-diisopropyl-4-(naphthalen-2-yl)phenyl)acetamide], the half-maximal inhibitory concentration (IC50) lay within 200 to 1000 nM.

Regarding `CC(C)c1cc(-c2ccc3c(c2)CCOC3)cc(C(C)C)c1CC(=O)N=S(N)(=O)c1sc(C(C)(C)O)nc1CO` (stereo not drawn) [Example 137, N-(amino(4-(hydroxymethyl)-2-(2-hydroxypropan-2-yl)thiazol-5-yl)(oxo)-λ^6-sulfaneylidene)-2-(4-(isochroman-6-yl)-2,6-diisopropylphenyl)acetamide], the IC50 fell in the range of 200 to 1000 nM.

Regarding `CC(C)c1cc(-c2ccc3c(c2)CCOC3)cc(C(C)C)c1CC(=O)N=S(=O)(NC(=O)OC(C)(C)C)c1cnc(C(C)(C)O)s1` (stereo not drawn) [Example 138, tert-butyl (2-(2-hydroxypropan-2-yl)-N-(2-(4-(isochroman-6-yl)-2,6-diisopropylphenyl)acetyl)thiazole-5-sulfonimidoyl)carbamate], the IC50 lay in the range of 1000 to 5000 nM.

Consider `CC(C)c1cc(-c2ccc3c(c2)CCOC3)cc(C(C)C)c1CC(=O)N=S(N)(=O)c1cnc(C(C)(C)O)s1` (stereo not drawn) [Example 139, N-(amino(2-(2-hydroxypropan-2-yl)thiazol-5-yl)(oxo)-λ^6-sulfaneylidene)-2-(4-(isochroman-6-yl)-2,6-diisopropylphenyl)acetamide], for which the 50% inhibitory concentration (IC50) lay in the range of 200 to 1000 nM.

Consider `CC(C)c1cc(COC2CCCC2)cc(C(C)C)c1CC(=O)N=S(=O)(NC(=O)OC(C)(C)C)c1cnc(C(C)(C)O)s1` (stereo not drawn) [Example 140, tert-butyl (N-(2-(4-((cyclopentyloxy)methyl)-2,6-diisopropylphenyl)acetyl)-2-(2-hydroxypropan-2-yl)thiazole-5-sulfonimidoyl)carbamate], for which the IC50 was in the range of 200 to 1000 nM.
